This data set can be described thus: Human HepG2 cell viability assay in 384 well format. Type of data set: toxicity, cell-based. Further details: dose 125 nL, time 70.5 hour; cytotoxicity at 70.5 h: concentration not given beside the values. The note with it: HepG2 cells, read-out: Inhibition.
As to `Cn1ccnc1CN(CCO)C(=O)c1nc2ccccc2s1`, the cytotoxicity at 70.5 h was 2.62%.

Take `CNC(=O)CN1CC[C@H]2CN(C(=O)c3ccc(C)cc3)C[C@H]2C1`: the cytotoxicity at 70.5 h is -4.71%.

With `Cc1ncoc1C(=O)N1CCc2[nH]nc(-c3ccc4c(c3)OCO4)c2C1`, the cytotoxicity at 70.5 h came to 16.8%.

Take `CCN(C)C[C@@H]1CN(C(=O)c2cc(C(F)(F)F)n[nH]2)C[C@@H]1CO`: the cytotoxicity at 70.5 h is -10%.

Take `CCc1cnc2c(c1Nc1ccc(OC)cc1)c(=O)n(C)c(=O)n2C`: the cytotoxicity at 70.5 h amounted to 21.4%.

For `Cc1noc(C)c1CN1C[C@@H]2C[C@@H](C)O[C@@H]2C1`, the cytotoxicity at 70.5 h is -3.08%.

As for `CC(C)Cc1cc(C(=O)N2CCCN(c3ncccn3)CC2)[nH]n1`, the cytotoxicity at 70.5 h is -1.63%.

As to `CCN1C(=O)CCC12CCCN(Cc1nccs1)C2` (configuration not stated), the cytotoxicity at 70.5 h is -13.8%.

As for `CC(Cn1ccnc1)NS(=O)(=O)c1ccc(C#N)c(Cl)c1` (configuration not stated), the cytotoxicity at 70.5 h was -9.17%.

For `Cn1ccc(C(=O)N2C[C@@H]3CCN(c4cnccn4)C[C@@H]3C2)n1`, the cytotoxicity at 70.5 h was -9.79%.

Turning to `CCOC(=O)C1CSCCN1C(=O)c1ccc(-n2nc(C)cc2C)cc1` (configuration not stated), the cytotoxicity at 70.5 h was found to be 3.47%.

As to `Cc1ccccc1CNC(Cn1cncn1)c1ccccc1` (configuration not stated), the cytotoxicity at 70.5 h turned out to be 1.75%.

`CC1CN(C(=O)c2ccnc(OCCN(C)C)c2)c2ccccc21` (configuration not stated): the cytotoxicity at 70.5 h is -14.8%.

On to `Cn1c(N)c2c(=O)n(C)c(-c3ccc(Cl)cc3)cc2c(C#N)c1=O`, for which the cytotoxicity at 70.5 h was -8.81%.

In the case of `COc1ccc2nnc(CCCC(=O)NCc3cccn3C)n2n1`, the cytotoxicity at 70.5 h was 6.5%.

Take `CCOCCCn1c(NC(=O)c2ccnc(C)n2)nc2ccccc21`: the cytotoxicity at 70.5 h came out at 25.9%.

With `CCOc1ccccc1CC(=O)N1C[C@@H](C(=O)O)[C@H](c2ccncc2)C1`, the cytotoxicity at 70.5 h is 37.4%.

As for `F[C@@H]1CN(Cc2cccnc2)C[C@@H]1OCc1nc2ccccc2[nH]1`, the cytotoxicity at 70.5 h was -3.79%.

For `c1cc(CNCc2ccnc(N3CCOCC3)c2)c2c(c1)OCCCO2`, the cytotoxicity at 70.5 h is -9.7%.

Regarding `CCOCC(O)CN1CCN(C(=O)C(C)(C)CC)CC1` (configuration not stated), the cytotoxicity at 70.5 h worked out at 18.6%.

`Cc1cccc2c(=O)n(C(C)Cc3cccnc3)cnc12` (configuration not stated): the cytotoxicity at 70.5 h was -8.06%.

Turning to `O=C(CCOc1ccccc1)N1CCCC(c2ncc[nH]2)C1` (configuration not stated), the cytotoxicity at 70.5 h is -20.2%.

As for `c1cncc(O[C@@H]2CC[C@H]3[C@H]2OCCN3C2CCCC2)c1`, the cytotoxicity at 70.5 h turned out to be 3.46%.

As for `COc1ccc(C[C@H]2CN(C(=O)c3cnoc3)CC[C@@H]2OC)cc1`, the cytotoxicity at 70.5 h is -3.97%.

On to `COC(=O)N1CCC(NC(=O)c2cc(S(N)(=O)=O)ccc2C)CC1`, for which the cytotoxicity at 70.5 h came out at 2.43%.

As to `CS(=O)(=O)NC1CCN(C(=O)CCC2CCCO2)CC1` (configuration not stated), the cytotoxicity at 70.5 h was -0.0133%.

Consider `COc1ccccc1CC1CCCN(C(=O)c2cc[nH]n2)C1` (configuration not stated), for which the cytotoxicity at 70.5 h is -6.57%.

Take `Cc1ccsc1CN1CCc2c(nc(N3CCCCC3C)[nH]c2=O)C1` (configuration not stated): the cytotoxicity at 70.5 h is -6.71%.

On to `O=C(CCn1ccc(=O)[nH]c1=O)N1CCC(Oc2ncccc2Cl)CC1`, for which the cytotoxicity at 70.5 h is -6.14%.

As for `CCNc1ncc(C(=O)N(C)Cc2nc3ccccc3n2C)cn1`, the cytotoxicity at 70.5 h is -2.99%.

With `CCN(CC)c1nc(C)cc(C(=O)Nc2cccc(C(N)=O)c2)n1`, the cytotoxicity at 70.5 h is -7.03%.

With `Clc1ccc(CN2CCc3c(ncn3C3CC3)C2)c2ncccc12`, the cytotoxicity at 70.5 h was -2.64%.

On to `CCc1cnc(NCC2OCCc3ccccc32)nc1` (configuration not stated), for which the cytotoxicity at 70.5 h turned out to be 3.74%.

Regarding `CN1[C@H](CN2CCCC2)C[C@@H]2CN(C(=O)c3cnccn3)CC[C@@H]21`, the cytotoxicity at 70.5 h is -4.55%.

Turning to `CC(C)c1cc(C(=O)N2CCOC3(CCCC3)C2)no1`, the cytotoxicity at 70.5 h was -21.7%.

Turning to `COC(=O)CNC(=O)c1ccc(OC2CCN(S(C)(=O)=O)CC2)c(Cl)c1`, the cytotoxicity at 70.5 h is -4.88%.

As to `O=C(c1cccs1)N1CC[C@H]2C[C@@H](c3nnc(C4CC4)o3)O[C@@H]2C1`, the cytotoxicity at 70.5 h is -7%.

Values taken from ChEMBL document CHEMBL3507680, “University of Dundee, Gates Library screen for HepG2 cell viability”.
